Experimental data taken from patent publication US6528049B2, “Bisexual attractants, aggregants and arrestants for adults and larvae of codling moth and other species of lepidoptera” (Trece, Inc., priority 1999, dated 2003).

Tests used:
Assay type in all cases: in vivo, Cydia pomonella
[1] = system: male codling moth; experiment: Pheromone preference paired-trap test: pheromone alone vs pheromone + HPV; conditions: for % of pheromone-alone capture (line under HPV + Pheromone value) / Male CM Captured, HPV + Pheromone Trap: ± SEM / Male CM Captured, HPV + Pheromone Trap ± SEM / Average % Change in ♂♂ CM Capture: Table 8; for Male CM Captured, HPV + Pheromone Trap: ± SEM / Male CM Captured, HPV + Pheromone Trap ± SEM / Male CM Capture with Pheromone + HPV Blend: ♂♂/trap/night ± SEM: 10 mg/red septum; for Average % Change in ♂♂ CM Capture: average of four orchards; for % Change (Ph+HPV/Phxl00) in Male CM Capture / Impact of HPV Blend on Pheromone Attractancy to Male CM / Male CM Capture with Pheromone + HPV Blend: ♂♂/trap/night ± SEM: Table 9
From the text: Interaction of synthetic apple and pear odor blends, described above in Table 2, and their effect on the attractancy of synthetic pheromone to codling moth was also studied. For that purpose, series of paired-traps containing pheromone alone or pheromone in combination with synthetic host plant volatile blends were placed in walnut orchards.
Interaction of individual synthetic host plant volatiles or blends on the attractiveness of synthetic male pheromone to male codling moth administered in paired traps with pheromone alone or with pheromone and attractant 10 mg/red septum was also studied.
Pheromone traps (sticky wing traps, Trécé, Inc.,) were hung as pairs: a pheromone only baited-trap vs. a pheromone+HPV blend-baited trap. The two traps of a test pair were attached in close competitive proximity (120 cm apart) on a common hanger bar (PVC pipe). The paired-trap bars were hung 5-6 meters high on the outer canopies of trees. A single pair-trap was hung per tree and different replicate test trees were separated by five rows in a matrix through the orchard. Each pheromone trap was baited with ½ of a commercial pheromone-impregnated rubber septum (Trécé, Inc.). Septa were sectioned by a razor blade. The HPV blends evaporated from their own separate impregnated rubber septa containing 10 mg diluted in hexane/septum).
Tests were conducted in a Harley English walnut orchard. Tests spanned the entire two year seasons April-October with traps checked, males sexed, counted and removed every 2-7 days. Significant effect on pheromone trap capture were judged by paired tests either T-test or a nonparametric test.

[2] = system: codling moth; experiment: Septa colour and loading dose trap study; set-up: ♂♂ ± SEM / ♀♀ ± SEM: unit not given here
Protocol: Since there have been differences observed between traps containing gray, white or red septa, a study was performed to determine the significance of the specific septa and their effect on the increase or decrease of attractancy. […]

[3] = system: codling moth; experiment: Trap capture with purified (2E,4E) and (2E,4Z) 2,4-decadienoic acid esters; conditions: 1 mg dose/gray septum; four orchards; means of 21 trap checks
Protocol: In this study, test compounds were highly purified synthetic samples. The purities of the compounds are expressed as percentages. Individual traps were baited with 1 mg dose/gray septum; five replicate blocks in four orchards; means of 21 total trap checks.

[4] = 0.1 mg A, Gray Septa, High (high population conventional orchard)
[5] = 0.1 mg A, Gray Septa, Low (low population organic orchard)
[6] = 0.1 mg A, Red Septa, High (high population conventional orchard)
[7] = 0.1 mg A, Red Septa, Low (low population organic orchard)
[8] = 1.0 mg A, Gray Septa, High (high population conventional orchard)
[9] = 1.0 mg A, Gray Septa, Low (low population organic orchard)
[10] = 1.0 mg A, Red Septa, Low (low population organic orchard)
[11] = 3 mg A, Gray Septa, High (high population conventional orchard)
[12] = 3 mg A, Gray Septa, Low (low population organic orchard)
[13] = 3 mg A, Red Septa, High (high population conventional orchard)
[14] = 3 mg A, Red Septa, Low (low population organic orchard)
[15] = 10 mg A, Gray Septa, High (high population conventional orchard)
[16] = 10 mg A, Gray Septa, Low (low population organic orchard)
[17] = 10 mg A, Red Septa, High (high population conventional orchard)
[18] = 10 mg A, Red Septa, Low (low population organic orchard)
[19] = 20 mg A, Gray Septa, High (high population conventional orchard)
[20] = 20 mg A, Gray Septa, Low (low population organic orchard)
[21] = 20 mg A, Red Septa, High (high population conventional orchard)
[22] = 20 mg A, Red Septa, Low (low population organic orchard)
[23] = Gray Septa, High (high population conventional orchard)
[24] = Gray Septa, Low (low population organic orchard)
[25] = Red Septa, High (high population conventional orchard)
[26] = Red Septa, Low (low population organic orchard)

CC(C)CCO [3-Methyl Butan-1-ol]
% of pheromone-alone capture (line under HPV + Pheromone value) ([1]; Orchard #1): 118%
Male CM Captured, HPV + Pheromone Trap: ± SEM ([1]; Orchard #1): 1.29 ± 0.25 ♂♂/trap/night
% of pheromone-alone capture (line under HPV + Pheromone value) ([1]; Orchard #2): 86%
Male CM Captured, HPV + Pheromone Trap ± SEM ([1]; Orchard #2): 1.19 ± 0.22 ♂♂/trap/night
% of pheromone-alone capture (line under HPV + Pheromone value) ([1]; Orchard #3): 95%
Male CM Captured, HPV + Pheromone Trap: ± SEM ([1]; Orchard #3): 2.82 ± 0.56 ♂♂/trap/night
% of pheromone-alone capture (line under HPV + Pheromone value) ([1]; Orchard #4): 115%
Male CM Captured, HPV + Pheromone Trap: ± SEM ([1]; Orchard #4): 2.91 ± 0.49 ♂♂/trap/night
Average % Change in ♂♂ CM Capture [1]: 104%

C=C/C(C)=C/CC=C(C)C [(E)-β-Ocimene]
% of pheromone-alone capture (line under HPV + Pheromone value) ([1]; Orchard #1): 135%
Male CM Captured, HPV + Pheromone Trap: ± SEM ([1]; Orchard #1): 1.40 ± 0.25 ♂♂/trap/night
% of pheromone-alone capture (line under HPV + Pheromone value) ([1]; Orchard #2): 114%
Male CM Captured, HPV + Pheromone Trap ± SEM ([1]; Orchard #2): 0.88 ± 0.17 ♂♂/trap/night
% of pheromone-alone capture (line under HPV + Pheromone value) ([1]; Orchard #3): 102%
Male CM Captured, HPV + Pheromone Trap: ± SEM ([1]; Orchard #3): 2.38 ± 0.34 ♂♂/trap/night
% of pheromone-alone capture (line under HPV + Pheromone value) ([1]; Orchard #4): 96%
Average % Change in ♂♂ CM Capture [1]: 112%

CCCCC/C=C\C=C\C(=O)OCC [A, ethyl (2E,4Z)-2,4-decadienoate]
♀♀ ± SEM [2, 4]: 1.40 ± 0.52
♂♂ ± SEM [2, 4]: 5.88 ± 1.80
♀♀ ± SEM [2, 5]: 1.05 ± 0.49
♂♂ ± SEM [2, 5]: 0.97 ± 0.47
♀♀ ± SEM [2, 6]: 2.76 ± 0.80
♂♂ ± SEM [2, 6]: 1.04 ± 0.41
♀♀ ± SEM [2, 7]: 0.43 ± 0.18
♂♂ ± SEM [2, 7]: 0.78 ± 0.55
♀♀ ± SEM [2, 8]: 4.77 ± 1.34
♂♂ ± SEM [2, 8]: 3.86 ± 1.55
♀♀ ± SEM [2, 9]: 0.84 ± 0.30
♂♂ ± SEM [2, 9]: 1.13 ± 0.63
♀♀ ± SEM ([2]; 1.0 mg A, Red Septa, High (high population conventional orchard)): 4.12 ± 1.37
♀♀ ± SEM [2, 10]: 1.06 ± 0.49
♂♂ ± SEM [2, 10]: 1.38 ± 0.60
♀♀ ± SEM [2, 11]: 5.25 ± 1.33
♂♂ ± SEM [2, 11]: 6.20 ± 1.25
♀♀ ± SEM [2, 12]: 1.18 ± 0.37
♂♂ ± SEM [2, 12]: 2.02 ± 0.72
♀♀ ± SEM [2, 13]: 6.46 ± 1.98
♂♂ ± SEM [2, 13]: 4.40 ± 1.28
♀♀ ± SEM [2, 14]: 0.69 ± 0.26
♂♂ ± SEM [2, 14]: 0.78 ± 0.35
♀♀ ± SEM [2, 15]: 5.77 ± 1.30
♂♂ ± SEM [2, 15]: 3.59 ± 0.92
♀♀ ± SEM [2, 16]: 1.28 ± 0.33
♂♂ ± SEM [2, 16]: 1.29 ± 0.36
♀♀ ± SEM [2, 17]: 7.04 ± 1.90
♂♂ ± SEM [2, 17]: 4.25 ± 0.99
♀♀ ± SEM [2, 18]: 0.57 ± 0.15
♂♂ ± SEM [2, 18]: 0.87 ± 0.41
♀♀ ± SEM [2, 19]: 3.59 ± 1.46
♂♂ ± SEM [2, 19]: 6.14 ± 1.46
♀♀ ± SEM [2, 20]: 2.83 ± 1.07
♂♂ ± SEM [2, 20]: 2.97 ± 0.97
♀♀ ± SEM [2, 21]: 5.43 ± 1.78
♂♂ ± SEM [2, 21]: 2.87 ± 0.88
♀♀ ± SEM [2, 22]: 0.66 ± 0.15
♂♂ ± SEM [2, 22]: 0.94 ± 0.20
♂♂ ± SEM (50 mg A) [2, 23]: 10.15 ± 2.04
♂♂ ± SEM (under 50 mg A) [2, 23]: 6.18 ± 1.60
♂♂ ± SEM (50 mg A) [2, 24]: 1.79 ± 0.69
♂♂ ± SEM (under 50 mg A) [2, 24]: 2.04 ± 0.83
♂♂ ± SEM (50 mg A) [2, 25]: 7.30 ± 2.00
♂♂ ± SEM (under 50 mg A) [2, 25]: 3.63 ± 0.93
♂♂ ± SEM (50 mg A) [2, 26]: 0.74 ± 0.24
♂♂ ± SEM (under 50 mg A) [2, 26]: 0.57 ± 0.18

CCCCO [Butan-1-ol]
% of pheromone-alone capture (line under HPV + Pheromone value) ([1]; Orchard #1): 101%
Male CM Captured, HPV + Pheromone Trap: ± SEM ([1]; Orchard #1): 0.74 ± 0.17 ♂♂/trap/night
% of pheromone-alone capture (line under HPV + Pheromone value) ([1]; Orchard #2): 117%
Male CM Captured, HPV + Pheromone Trap ± SEM ([1]; Orchard #2): 2.73 ± 0.56 ♂♂/trap/night
% of pheromone-alone capture (line under HPV + Pheromone value) ([1]; Orchard #3): 122%
Male CM Captured, HPV + Pheromone Trap: ± SEM ([1]; Orchard #3): 2.95 ± 0.43 ♂♂/trap/night
% of pheromone-alone capture (line under HPV + Pheromone value) ([1]; Orchard #4): 96%
Male CM Captured, HPV + Pheromone Trap: ± SEM ([1]; Orchard #4): 2.96 ± 0.62 ♂♂/trap/night
Average % Change in ♂♂ CM Capture [1]: 109%

CCCCC/C=C/C=C/C(=O)OCCCC [Butyl (2E,4E)-2,4-Decadienoate]
FEMALE CM Captured: ♂♂/trap/night ± SEM [3]: 0 ♀♀/trap/night
MALE CM Captured: ♂♂/trap/night ± SEM [3]: 0.02 ± 0.02 ♂♂/trap/night
Total CM Captured: CM/trap/night ± SEM [3]: 0.02 ± 0.02 CM/trap/night

CCCCC/C=C\C=C\C(=O)OCC [Ethyl (2E,4Z)-2,4-Decadienoate, #1 (95.3%)]
MALE CM Captured: ♂♂/trap/night ± SEM [3]: 1.67 ± 0.41 ♂♂/trap/night
Total CM Captured: CM/trap/night ± SEM [3]: 4.49 ± 1.29 CM/trap/night

CCCCC/C=C\C=C\C(=O)OCC [Ethyl (2E,4Z)-2,4-Decadienoate, #2 (88.5%)]
MALE CM Captured: ♂♂/trap/night ± SEM [3]: 1.89 ± 0.79 ♂♂/trap/night
Total CM Captured: CM/trap/night ± SEM [3]: 4.25 ± 1.43 CM/trap/night

C=C1/C=C/[C@H](C(C)C)CC/C(C)=C/CC1 [Germacrene-D]
% Change (Ph+HPV/Phxl00) in Male CM Capture [1]: 109%
Impact of HPV Blend on Pheromone Attractancy to Male CM [1]: No Effect
Male CM Capture with Pheromone + HPV Blend: ♂♂/trap/night ± SEM [1]: 0.86 ± 0.19 ♂♂/trap/night

C=CC(=C)CCC=C(C)C [Myrcene]
% Change (Ph+HPV/Phxl00) in Male CM Capture [1]: 84%
Impact of HPV Blend on Pheromone Attractancy to Male CM [1]: No Effect
Male CM Capture with Pheromone + HPV Blend: ♂♂/trap/night ± SEM [1]: 1.03 ± 0.26 ♂♂/trap/night

C=C/C(C)=C/C/C=C(\C)CCC=C(C)C [alpha-Farnesene]
% Change (Ph+HPV/Phxl00) in Male CM Capture [1]: 86%
Impact of HPV Blend on Pheromone Attractancy to Male CM [1]: No Effect
Male CM Capture with Pheromone + HPV Blend: ♂♂/trap/night ± SEM [1]: 1.38 ± 0.39 ♂♂/trap/night

CC1=CCC(C(C)C)=CC1 [gamma-Terpinene]
% Change (Ph+HPV/Phxl00) in Male CM Capture [1]: 93%
Impact of HPV Blend on Pheromone Attractancy to Male CM [1]: No Effect
Male CM Capture with Pheromone + HPV Blend: ♂♂/trap/night ± SEM [1]: 0.88 ± 0.28 ♂♂/trap/night

Cc1ccc(C(C)C)cc1 [para-Cymene]
% of pheromone-alone capture (line under HPV + Pheromone value) ([1]; Orchard #1): 117%
Male CM Captured, HPV + Pheromone Trap: ± SEM ([1]; Orchard #1): 0.92 ± 0.20 ♂♂/trap/night
% of pheromone-alone capture (line under HPV + Pheromone value) ([1]; Orchard #2): 102%
Male CM Captured, HPV + Pheromone Trap ± SEM ([1]; Orchard #2): 1.39 ± 0.38 ♂♂/trap/night
% of pheromone-alone capture (line under HPV + Pheromone value) ([1]; Orchard #3): 108%
Male CM Captured, HPV + Pheromone Trap: ± SEM ([1]; Orchard #3): 4.76 ± 0.82 ♂♂/trap/night
% of pheromone-alone capture (line under HPV + Pheromone value) ([1]; Orchard #4): 136%
Male CM Captured, HPV + Pheromone Trap: ± SEM ([1]; Orchard #4): 4.27 ± 0.71 ♂♂/trap/night
Average % Change in ♂♂ CM Capture [1]: 116%

C=C1CCC2CC1C2(C)C (stereo not drawn) [β-Pinene]
% of pheromone-alone capture (line under HPV + Pheromone value) ([1]; Orchard #1): 61%
Male CM Captured, HPV + Pheromone Trap: ± SEM ([1]; Orchard #1): 0.75 ± 0.50 ♂♂/trap/night
% of pheromone-alone capture (line under HPV + Pheromone value) ([1]; Orchard #2): 63%
Male CM Captured, HPV + Pheromone Trap ± SEM ([1]; Orchard #2): 1.25 ± 0.29 ♂♂/trap/night
% of pheromone-alone capture (line under HPV + Pheromone value) ([1]; Orchard #3): 130%
Male CM Captured, HPV + Pheromone Trap: ± SEM ([1]; Orchard #3): 3.37 ± 0.53 ♂♂/trap/night
% of pheromone-alone capture (line under HPV + Pheromone value) ([1]; Orchard #4): 112%
Male CM Captured, HPV + Pheromone Trap: ± SEM ([1]; Orchard #4): 4.95 ± 0.76 ♂♂/trap/night
Average % Change in ♂♂ CM Capture [1]: 92%
